Test results: patent US20260048041A1, “COMPOSITION FOR REMOVING HELICOBACTER PYLORI COMPRISING ZASTAPRAZAN OR PHARMACEUTICALLY ACCEPTABLE SALT THEREOF” (JEIL PHARMACEUTICAL CO., LTD., priority 2022, published 2026)
One block for each compound: values may come before it.

Tests used:
[1] = tested on: Helicobacter pylori (ATCC43504); experiment: Anti-H. pylori in vitro efficacy test, MIC and MBC by microdilution (CLSI); type: cell-based; details: strain 43504, unit not given in table (method uses μg/mL); for MIC: 3 days, microaerobic
Description: (§1) Helicobacter pylori (ATCC43504): Type strain for antibiotic susceptibility testing according to the Clinical & Laboratory Standards Institute (CLSI) guidelines. An antibiotic susceptibility testing was performed using the microdilution method according to the CLSI guideline. […] The bacteria were inoculated into wells containing only medium without antibiotics to prepare the positive control group, and the wells containing only medium without antibiotics or inoculated bacteria were used as the negative control group. The concentration range of the test substances, zastaprazan (JP-1366) and fexuprazan, was determined through preliminary experiments. […] The lowest concentration at which no bacterial growth was observed was determined as the MIC. […] The lowest concentration at which no bacteria growth occurred was determined as the MBC. […] All tests were performed in duplicate, and the results were determined by conducting the experiments in triplicate.

[2] = tested on: Helicobacter pylori 26695 (ATCC700329); experiment: as above; type: cell-based; details: strain 26695; unit not given in table (method uses μg/mL)
Description: as §1, with “26695 (ATCC700329): A” for “(ATCC43504): Type”, “strain isolated from a patient known to be associated with the development of gastric cancer. The strain is cytotoxin associated gene (CagA)-positive and vacuolating cytotoxin (VacA)-positive and has a well-known genetic background, so it is mainly used” for “strain”, “research purposes.” for “antibiotic susceptibility testing according to the Clinical & Laboratory Standards Institute (CLSI) guidelines.”

[3] = tested on: Helicobacter pylori SS1 (mouse colonizing strain); experiment: as above; type: cell-based
Description: as §1, with “SS1 (mouse colonizing strain): A” for “(ATCC43504): Type”, “known as Sydney strain. The strain is CagA-positive and VacA-positive and has been confirmed” for “for antibiotic susceptibility testing according”, “infect and colonize in C57BL/6 mice. The strain is used in animal testing.” for “the Clinical & Laboratory Standards Institute (CLSI) guidelines.”

[4] = tested on: Helicobacter pylori SS1 (mouse colonizing strain); experiment: Efficacy of JP-1366 to enhance antibacterial activity of clarithromycin, MIC and MBC by microdilution; type: cell-based; details: H. pylori SS1
Description: Helicobacter pylori SS1 (mouse colonizing strain): Known as Sydney strain, the strain is […] and VacA-positive, and has been confirmed to colonize mice C57BL/6 and is used in animal experiments.
An antibiotic susceptibility test was performed by the microdilution method according to CLSI guideline.
The antibiotic susceptibility test was performed using MH broth (7% horse serum, 0.4% IsoVitalex), and the susceptibility test medium for zastaprazan (JP-1366) was prepared at this time. […] Using the medium prepared in this way, clarithromycin was serially diluted 2-fold and in 16 steps, with a maximum concentration of 16 μg/mL. Wells containing only the medium without antibiotics were used as a negative control group, and wells inoculated only with the bacteria in the medium without antibiotics were used as a positive control group. H. pylori stored in a deep freezer (−70° C. or lower) was inoculated onto BHI agar (w/7% laked horse blood, 0.4% IsoVitalex) and cultured for three days at 37° C. under microaerophilic conditions (Oxoid CampyGene gas pk) and then subcultured onto a fresh medium. The cultured bacteria were harvested, suspended in PBS, and inoculated into each well at a concentration of 5×10^5 CFU/mL. Thereafter, the bacteria were cultured for three days at 37° C. under microaerophilic conditions of 5% 02, 10% CO2, and 85% N2 gas. The lowest concentration of the sample at which no bacterial growth was observed was determined as the MIC. […] The lowest concentration at which no bacterial growth was observed was determined as the minimum bactericidal concentration(MBC).

[5] = Solubility seen during MIC analysis; type: physicochemical; details: in MIC medium; suspension formed, MIC analysis difficult
Text: Referring to Table 4 below, since the solubility of zastaprazan (JP-1366) was low, the MIC analysis was difficult (poor solubility, formation of suspension, interference in visual/absorbance analysis), so the inhibitory effect on the H. pylori strains was confirmed through the MBC index.

[6] = tested on: patients with erosive gastroesophageal reflux disease; experiment: Phase 2 clinical trial, healing of mucosal breaks and symptoms; type: in vivo, human
Description: H. pylori testing was performed by 13C-urea breath test (13C-UBT), gastroscopy (Campylobacter-like organism test, CLO), or tissue biopsy to confirm H. pylori positivity/negativity. The testing was performed at the screening visit (Visit 1) or the randomization visit (Visit 2), and results from the same institution within 29 days prior to the randomization visit (Visit 2) could be substituted. This clinical trial was a randomized, double-blind, active-controlled, multicenter, phase 2 clinical trial targeting patients with erosive gastroesophageal reflux disease. After the subjects gave written consent to participate in the clinical trial, a screening test was conducted. […] At this time, the subjects were stratified by grade (A, B, C, D) according to the LA classification system classified by upper gastrointestinal endoscopy. Randomly assigned subjects took the clinical trial drug once a day according to the assigned administration group for four weeks. After four weeks of administration of the clinical trial drug, the subjects visited the clinical trial institution to undergo an upper gastrointestinal endoscopy to assess whether they were healed. Healed subjects underwent a Safety Follow-Up (F/U) two weeks later, and unhealed subjects were administered the clinical trial drug for additional four weeks (a total of 8 weeks of administration) and visited the clinical trial institution to undergo an upper gastrointestinal endoscopy. […] 3.

[7] = Drug interaction (PK) trial of JP-1366, amoxicillin and clarithromycin in healthy adult volunteers; type: in vivo, human
Text: Test drug and administration period A. Test drug 1: […] Jeil Pharmaceutical • Dose: […] Oral B. […] Selection and classification of clinical trial subjects […]

[8] = strain SS1, unit not given in table (method uses μg/mL)
[9] = MH medium + JP1366 at ½ MIC concentration, unit not given
[10] = MH medium, unit not given in table (method uses μg/mL)
[11] = JP-1366, three-drug regimen vs JP-1366 alone

- MIC [1]: 0.016~0.032
- MIC [2]: 0.016~0.032
Structure (SMILES): CC1(C)S[C@@H]2[C@H](NC(=O)[C@H](N)c3ccc(O)cc3)C(=O)N2[C@H]1C(=O)O [Amoxicillin]
- MBC [1]: 0.032
- MBC [2]: 0.032
- MBC [3, 8]: 0.25

Structure (SMILES): CC[C@H]1OC(=O)[C@H](C)[C@@H](O[C@H]2C[C@@](C)(OC)[C@@H](O)[C@H](C)O2)[C@H](C)[C@@H](O[C@@H]2O[C@H](C)C[C@H](N(C)C)[C@H]2O)[C@](C)(OC)C[C@@H](C)C(=O)[C@H](C)[C@@H](O)[C@]1(C)O [Clarithromycin]
- MIC [1]: 0.032
- MBC [1]: 0.063
- MBC [2]: 0.125
- MIC [2]: 0.063~0.125
- MBC [3, 8]: 0.125
- MIC [3, 8]: 0.032
- MBC [4, 9]: 0.032 to 0.063
- MIC [4, 9]: 0.032 to 0.063
- MBC [4, 10]: 0.063 to 0.125
- MIC [4, 10]: 0.032 to 0.063
- lowering of MBC in medium containing JP1366 ([4]; medium with zastaprazan (JP1366) at ½ MIC concentration vs MH medium): about ½

Structure (SMILES): CNCc1cn(S(=O)(=O)c2cccc(F)c2)c(-c2ccc(F)cc2F)c1OC [Fexuprazan]
- MIC [1]: 64
- MBC [1]: 64~128
- MBC [2]: 64~128
- MIC [2]: 64
- MBC [3, 8]: 64~128
- MIC [3, 8]: 64

Structure (SMILES): Cc1cccc(C)c1CNc1cc(C(=O)N2CCC2)cn2c(C)c(C)nc12.O=C(O)CC(O)(CC(=O)O)C(=O)O [JP-1366, azetidin-1-yl{8-[(2,6-dimethylbenzyl)amino]-2,3-dimethylimidazo[1,2-a]pyridin-6-yl}methanone citrate salt]
- MBC [1]: 8~32
- MBC [2]: 16~32
- MBC ([3]; Helicobacter pylori, stated in Example 5 method, H. pylori SS1, read-out: maximum MBC value): 32 µg/mL
- MBC [3, 8]: 16~32
- solubility [5]: low
- healing effect compared with Nexium 40 mg ([6]; H. pylori-negative group, 20 mg): the same effect as Nexium 40 mg
- symptoms (heartburn, acid reflux, heartburn/acid reflux) within 24 hours and for seven days after administration ([6]; JP-1366 5 mg two capsules (10 mg) once a day): all symptoms tended to be ameliorated
- symptoms (heartburn, acid reflux, heartburn/acid reflux) within 24 hours and for seven days after administration ([6]; JP-1366 20 mg one capsule once a day): all symptoms tended to be ameliorated
- AUCT higher when T3 was administered compared to T1 [7, 11]: approximately 2.4 times
- AUCτ, Geometric LS Mean Ratio (T3/T1), Point Estimate [7, 11]: 2.4422
- Cmax, ss higher when T3 was administered compared to T1 [7, 11]: approximately 1.8 times
- Cmax, ss, Geometric LS Mean Ratio (T3/T1), Point Estimate [7, 11]: 1.7766
- Cmax ([7]; human, in vivo, JP-1366 after T1: JP-1366 20 mg 1 capsule alone, twice daily, 5 days, oral, N = 24, read-out: Cmax, ss, Geometric LS Mean): 156 ng/mL
- increase of area under the concentration-time curve (AUCT) compared to single administration ([7]; zastaprazan combined with amoxicillin and clarithromycin): more than twofold

Structure (SMILES): COc1ccc2[nH]c([S+]([O-])Cc3ncc(C)c(OC)c3C)nc2c1 (stereo not drawn) [Omeprazole]
- MIC [1]: 32
- MBC [1]: 64
- MBC [2]: 64~128
- MIC [2]: 32~64
- MBC [3, 8]: 64~128
- MIC [3, 8]: 32~64
